Assay results: the supplement of paper PMC11208160

Assay: recombinant barcode read abundance after kanamycin selection (control-corrected) (log10(CPM+1)); higher = more efficient recombination; sequences stand for … in AGTGCAGAGAAAATCGGCCAGTTTTCTCTGCCTGCAGTCCGCATGCCGT…AGATTTATGCAGCGGACTGCCTTTCTCCCAAAGTGATAAACCGGACAGTATCATGGACCGGTTTTCCCGGTAATCCGTATTTGCAAGGTTGGTTTCACT; site = the 11-nt target
How it was run: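 Pooled E. coli screen pairing targets with IS621 bridge RNA target-binding loops. Each oligo (promoter, target, barcode, J23119-driven first 104 bridge RNA bases) was Gibson-cloned into a vector with the remaining 73 bp and T7-inducible recombinase, then co-electroporated with a donor plasmid. Two replicates each were plated on chloramphenicol/ampicillin LB agar (control) or chloramphenicol/ampicillin/kanamycin with 0.1 mM IPTG. Recombination efficiency is recombinant-junction barcode counts as CPM, averaged, control-corrected, reported as log10(CPM+1).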
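Also: IS621 recombinase and bridge RNA in Escherichia coli cells.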

Sequence | recombinant barcode read abundance (log10)
TACTTCCCTTGGGTTCTAACCTGTTGCGT (site TACTTCCCTAC) | 1.87
TACTTCCCTTGGGTTCTAACCTGTTGCGT (site TACTTCTCTAG) | 0.0128
TACTTCTCTTGGGTTCTAACCTGTTGCCT (site TACTTCCCTAC) | 0.211
TACTTCTCTTGGGTTCTAACCTGTTGCCT (site TACTTCTCTAG) | 0.764
TACTTGCCTTGGGTTCTAACCTGTTGCCT (site TAATTGCCTAG) | 0.0842
TACTTGCCTTGGGTTCTAACCTGTTGCCT (site TACTTGCCTAG) | 0.804
TACTTGCCTTGGGTTCTAACCTGTTGCCT (site TAGTTGCCTAG) | 0.653
TACTTGCCTTGGGTTCTAACCTGTTGCCT (site TATTTGCCTAG) | 0.182
TAGAACTCTTGGGTTCTAACCTGTTGCCA (site TAGAACTCTAG) | 0.254
TAGAACTCTTGGGTTCTAACCTGTTGCCA (site TAGAACTCTCG) | 0.23
TAGAACTCTTGGGTTCTAACCTGTTGCCA (site TAGAACTCTGG) | 0.0926
TAGAACTCTTGGGTTCTAACCTGTTGCCA (site TAGAACTCTTG) | 0.193
TAGAAGACTTGGGTTCTAACCTGTTGCTA (site TAGAAGACTAA) | 0.115
TAGAAGACTTGGGTTCTAACCTGTTGCTA (site TAGAAGACTCA) | 0.487
TAGAAGACTTGGGTTCTAACCTGTTGCTA (site TAGAAGACTGA) | 0.155
TAGAAGACTTGGGTTCTAACCTGTTGCTA (site TAGAAGACTTA) | 1.55
TAGAAGACTTGGGTTCTAACCTGTTGCTG (site TAGAAGACTAA) | 0.128
TAGAAGACTTGGGTTCTAACCTGTTGCTG (site TAGAAGACTCA) | 2.38

Sequence | recombinant barcode read abundance (log10)
TAGAAGACTTGGGTTCTAACCTGTTGCTG (site TAGAAGACTGA) | 0.315
TAGAAGACTTGGGTTCTAACCTGTTGCTG (site TAGAAGACTTA) | 0.639
TAGAAGCCTTGGGTTCTAACCTGTTGCTA (site TAGAAGCCTTA) | 0.463
TAGAAGCCTTGGGTTCTAACCTGTTGCTA (site TAGAAGGCTTA) | 0.21
TAGAAGGCTTGGGTTCTAACCTGTTGCAT (site TAGAAGGCTAA) | 0.162
TAGAAGGCTTGGGTTCTAACCTGTTGCAT (site TAGAAGGCTAC) | 0.0752
TAGAAGGCTTGGGTTCTAACCTGTTGCAT (site TAGAAGGCTAG) | 0.161
TAGAAGGCTTGGGTTCTAACCTGTTGCAT (site TAGAAGGCTAT) | 1.97
TAGAATCCTTGGGTTCTAACCTGTTGCAT (site TAGAATCCTAT) | 0.104
TAGAATCCTTGGGTTCTAACCTGTTGCAT (site TAGAATCCTCT) | 0.102
TAGAATCCTTGGGTTCTAACCTGTTGCAT (site TAGAATCCTGT) | 0.0579
TAGAATCCTTGGGTTCTAACCTGTTGCAT (site TAGAATCCTTT) | 0.241
TAGAATGCTTGGGTTCTAACCTGTTGCCT (site TAGAATGCTAA) | 0.133
TAGAATGCTTGGGTTCTAACCTGTTGCCT (site TAGAATGCTAG) | 0.921
TAGACATCTTGGGTTCTAACCTGTTGCTC (site TAGACATCTGA) | 0.323
TAGACATCTTGGGTTCTAACCTGTTGCTC (site TAGCCATCTGA) | 0.0147
TAGACATCTTGGGTTCTAACCTGTTGCTC (site TAGGCATCTGA) | 0.0149
TAGACATCTTGGGTTCTAACCTGTTGCTC (site TAGTCATCTGA) | 0.016
